Data taken from US20030157715A1, “Modulation of chromosome function by chromatin remodeling agents” (priority 2000, published 2003).
Values joined by “and” are separate entries in the source; they are usually repeats but may differ in a detail not shown here. Equal entries are not always repeated. “Also recorded” adds a separate entry of the source.

Key:
[1] = test system: GAF distribution at the bw^D insert of polytene nuclei; assay: GAF immunofluorescence in permeabilized bw^D salivary glands; assay type: cell-based, Drosophila melanogaster; conditions: permeabilized glands incubated 60 minutes with compound
Description: We argued that perhaps P31 may open the bw^D insert as to render this heterochromatin more accessible for GAF binding. To address this question, we incubated permeabilized bw^D salivary glands either with P31, P9 or no drug and then triply stained the polytene nuclei for GAF (by immunofluorescence), total DNA (with DAPI) and for the bw^D insert (with P31T). Stained polytene glands were gently mounted for microscopy without squashing in order examine a large number of nuclei.
Kc nuclei and polytene chromosomes were stained with fluorescent polyamides as described elsewhere (Janssen et al., 2000). For immunofluorescence, polytene glands were carefully dissected from bw^D or Canton S. flies in 1× PBS as described (Ashburner, 1989) Whole glands in sol P (1×PBS supplemented with 1 mM MgCl2 and 0.1% digitonin) were then incubated for 60 minutes with various concentrations of either P31, P9 or no compound at room temperature. P31 (not P9) induced redistribution of GAF during this incubation step. Glands were washed then twice for 5 min with sol P and fixed with fresh paraformaldehyde at a final concentration of 0.8%. Glands were washed 5 times in sol P for 5 min and then blocked for 60 min in the same buffer, supplemented with 5% non-fat milk. […] Images were recorded with a wide field, deconvolution-type imaging system from DeltaVision.

[2] = test system: satellite III chromatin in Kc nuclei; assay: Chromatin opening of satellite III: topoisomerase II / restriction enzyme cleavage in Kc nuclei; assay type: biochemical, Drosophila
w^m4 flies = assay: Polyamides fed to developing white-mottled flies; assay type: in vivo, Drosophila melanogaster; conditions: for Lethality / Sex comb (mean) / Sex comb, range of teeth / A6 to A5: fly stock w^m4; for A6 to A5: males with bristles on A6
Text: The eye phenotype of w^m4 flies is quite heterogeneous. About 65% of the eyes are strongly variegated, ranging from quasi-white with little pigment to those containing a generally white background and a number of red patches (defined as the white-mottled class). The remaining flies have eyes with a darker appearance with often larger red patches in an orange background (red-mottled class). Given the phenotypic heterogeneity of w^m4 flies, we carried out our experiments on a relatively large scale by mixing these compounds directly with semi-synthetic fly medium. Vials were prepared containing a final concentration of either 100 μM P9, P31 or no compound. Equal numbers of 5 to 10 days old w^m4 flies were allowed to lay eggs for 36 hours. The parents were then removed and progeny development was allowed to proceed at a constant temperature of 18° C. […] The timing of the developmental stages was also normal and generally, around 90 to 160 flies hatched per vial in this experiment (Table 2).
For eye phenotype analysis, young flies born on the same day were transferred to a drug-free vial and scored 5 days thereafter. Eye phenotypes were categorized into the two classes defined as white-mottled or red-mottled, after examination under a dissection microscope. […] Where in the absence of the drug, 62% of the eyes were scored as white-mottled, only 11% retained this phenotype for the flies raised in the presence of P9. […] In contrast, P31 had no effect on the w^m4 eye phenotype, since 64% of the flies remained white-mottled (FIG. 7C, Table 2).
Vials for egg laying containing polyamides were prepared as follows: 250 nmoles of P9, P31 was dissolved in 150 μl ddH2O and then mixed with 2.35 g of semi-synthetic fly media pre-heated at 60° C. These vials contained a concentration 100 μM of compound in final. After cooling down to room temperature, ˜300 w^m4 flies (age 5-10 days) were added to the vial for egg laying. Eggs were collected for a period of 36 hours at 18° C., mother flies were then removed and fly development was allowed to proceed at a constant temperature (18° C.±1). New-born flies of the same day were transferred to a fresh vial and scored after 5 days for eye phenotypes (Girard et al., 1998). For visual inspection of eye-phenotypes (Table 1), both female and male flies were scored. For optical density measurements of the eye-pigments, 30 heads of males were selected, pigments extracted and measured as described (Hazelrigg et al., 1984).
(§1) The lethality of the progenies was calculated by counting the dead bodies and the total empty pupal shells. The A6 to A5 transformation was detected by bristles that form on abdominal segment A6 on males. All male adult flies obtained (˜50) were scored. Sex combs and halteres were individually inspected and photographed under the microscope (Axiophot, Zeiss) after dissecting at least 30 individuals and incubating them into 30 μl of 0.6 g/ml gum arabic; 4 g/ml chlorohydrate; 35% glycerol under a 24×24 mm coverslip as described (Ashburner, 1989). Since raising double heterozygous flies (Ubx^1/+; bw^D/+) led to lethality, we morphologically dissected eight late stage pupae after carefully removing the pupal envelope.

[3] = test system: heterozygous bw^D flies (bw^D/+); assay: Polyamides fed to developing heterozygous brown-dominant flies; assay type: in vivo, Drosophila melanogaster; conditions: for eye phenotype / trans-inactivation (in words): bw^D/+, st/st progeny
Description: It was therefore of great interest to test whether P31 would affect the eye phenotype of heterozygous bw^D flies. […] The experiment is similar to that described above for w^m4. Vials with semi-synthetic fly food medium were prepared containing a final concentration of 100 μM P31, P9 or no compound. Egg laying was allowed to proceed for 36 hours by homozygous (bw^D/bw^D) females that were crossed with scarlet (st/st) males. The progeny from this cross is heterozygous for the brown locus and homozygous for scarlet (bw^D/+; st/st). In a scarlet background, a modification of the bw^D eye color is much easier to observe (Talbert et al., 1994).
Drug treatments of the bw^D flies were performed as for w^m4 flies except that 30 parental females were allowed to lay eggs. To obtain the heterozygous bw^D/+; st/st progeny, 30 virgin bw^D/bw^D; st/st homozygous females were mated with scarlet homozygous males for about 5 days before transferring them to experimental vials for egg laying.
as §1

[4] = 100 μM in fly food, eyes scored after 5 days
[5] = 30 male heads, spectrometry, 100 μM in food

Structure (SMILES): CN(C)CCCNC(=O)CCNC(=O)c1cc(NC(=O)c2cc(NC(=O)c3cc(NC(=O)CCNC(=O)c4cc(NC(=O)c5cc(NC(=O)c6cccn6C)cn5C)cn4C)cn3C)cn2C)cn1C [Compound P9, PyPyPy-β-PyPyPy-β-Dp]
- GAF distribution relative to the bw^D insert [1]: does not alter this pattern
- facilitation of cleavage by topoisomerase II (in words) [2]: strongly facilitate cleavage
- stimulation of topoisomerase II cleavage at 62 nM ([2]; 62 nM, lowest concentration): massive cleavage stimulation
- concentration of maximal stimulation of topoisomerase II cleavage ([2]; Kc nuclei in Xenopus egg extracts, VM26): 500 nM and 500 to 1000 nM
- lower concentration than P31 needed to open satellite III ([2]; P9 versus P31): roughly 10 fold
- cleavage within satellite III by restriction enzymes (HaeIII) ([2]; data not shown): facilitated cleavage within satellite III by restriction enzymes
- effect on PEV / w^m4 eye phenotype (in words) (w^m4 flies; 100 μM in fly food): strong suppressor of PEV
- "White mottled" (Strongly Variegated) (w^m4 flies; [4]): 8.9%
- red pigment level relative to control flies (no drug) (w^m4 flies; [5]): about 3 times
- red pigment level relative to wild type flies (w^m4 flies; [5]): about 50%
- Lethality (w^m4 flies): 5-10%
- Sex comb (mean) (w^m4 flies): 10.8
- Sex comb, range of teeth (w^m4 flies): 9-12
- A6 to A5 (w^m4 flies): 0%
- eye phenotype / trans-inactivation (in words) [3]: indistinguishable from that of the no-drug control
- A6 to A5, number of bristles on A6 ([3]; fly stock bw^D/bw^+): no bristles were observed
- Lethality ([3]; fly stock bw^D/bw^+): 5-10%
- A6 to A5 ([3]; fly stock bw^D/bw^+, males with bristles on A6): 0%

Structure (SMILES): CN(C)CCCNC(=O)CCNC(=O)c1nc(NC(=O)CCNC(=O)c2nc(NC(=O)CCNC(=O)c3cc(NC(=O)c4nc(NC(=O)CCNC(=O)c5nccn5C)cn4C)cn3C)cn2C)cn1C [Compound P31, Im-β-Im-Py-β-Im-β-Im-β-Dp]
- GAF distribution relative to the bw^D insert [1]: dramatic GAF redistribution
- concentration giving cleavage stimulation comparable to 62 nM of P9 [2]: 500 nM
- stimulation of topoisomerase II cleavage up to 200 nM ([2]; up to 200 nM): no significant reinforcement
- effect on PEV / w^m4 eye phenotype (in words) (w^m4 flies; 100 μM in fly food): no effect; also recorded: no activity
- "White mottled" (Strongly Variegated) (w^m4 flies; [4]): 64%
- "red Mottled" (Weakly Variegated) (w^m4 flies; [4]): 36%
- Lethality (w^m4 flies): 5-10%
- Sex comb (mean) (w^m4 flies): 10.8
- Sex comb, range of teeth (w^m4 flies): 9-13
- A6 to A5 (w^m4 flies): 0%
- mean number of bristles on A6 ([3]; bw^D/+ progeny): 3.75
- eye phenotype / trans-inactivation (in words) [3]: does not overcome trans-inactivation to a significant extent
- Lethality ([3]; fly stock bw^D/bw^+): 5-10%
- Sex comb (mean) ([3]; fly stock bw^D/bw^+): 8.1
- Sex comb, range of teeth ([3]; fly stock bw^D/bw^+): 7-10
- PEV ([3]; fly stock bw^D/bw^+, grade, key not given): (+?)
- progeny lacking bristles on A6 ([3]; heterozygous progeny): about 10%
- Pupae delay ([3]; in vivo): 65 to 67 h
- developmental delay ([3]; in vivo): over 2 days
